{
  "source": "patent US7053077B1",
  "about": "“Use of biogenic estrogen sulfamates for hormone replacement therapy” (Schering AG, priority 1998, dated 2006)",
  "key": {"[1]": {"tested_on": "liver", "conditions": "relative to anti-gonadotropic properties; cited from earlier work"}, "[2]": {"tested_on": "bone", "conditions": "postmenopausal women, very high oral dosages; cited from earlier work"}, "[3]": {"tested_on": "bone", "conditions": "uniform active ingredient levels maintained in the blood; cited from earlier work"}, "[4]": {"conditions": "women; cited from earlier work"}, "[5]": {"test": "Plasma estrogen levels after one-time oral administration in postmenopausal women", "assay_type": "in vivo", "excerpt": "A “pool” of estrone sulfate is produced in the blood by EV. From the latter is released estrone by hydrolysis, a small proportion of which is in turn metabolized into estradiol. […] Estrone sulfate is in this case only the main metabolite of the estrogens that are produced from the sulfamate."}, "[6]": {"tested_on": "endometrium", "test": "Growth effect on the endometrium after daily low-dose treatment", "assay_type": "in vivo, postmenopausal women", "conditions": "daily 0.1 mg, at the end of treatment"}, "[7]": {"test": "Blood levels of estradiol and estrone in ovariectomized rats after oral treatment", "assay_type": "in vivo", "experimental": "(§1) These release-processes were ended after 24 hours."}, "[8]": {"experimental": "In the examples below, the determination of the plasma levels of the estrogens with validated methods that are known and acknowledged in the art was performed."}, "[9]": {"tested_on": "ovariectomized rats", "test": "Oral estrogenic action in ovariectomized rats", "assay_type": "in vivo", "experimental": "as §1"}},
  "data": [
    {"compound": "C#C[C@]1(O)CC[C@H]2[C@@H]3CCc4cc(O)ccc4[C@H]3CC[C@@]21C", "note": "[EE, ethinylestradiol]", "values": [
      {"measurement": "estrogenic activity in the liver compared with orally administered natural estrogens", "setting": "[1]", "result": "4–18 times"}
    ]},
    {"compound": "C[C@]12CC[C@@H]3c4ccc(O)cc4CC[C@H]3[C@@H]1C[C@@H](O)[C@@H]2O", "note": "[estriol]", "values": [
      {"measurement": "osteoprotective effect", "setting": "[2]", "result": "not osteoporectively effective"},
      {"measurement": "action in the bone after ovariectomy", "setting": "[3]", "result": "protective action in the bone"},
      {"measurement": "half-life", "setting": "[4]", "result": "1.5 to 5.3", "unit": "h"}
    ]},
    {"compound": "estradiol sulfamate", "values": [
      {"measurement": "estrone levels 24 hours after administration", "setting": "[5]; one-time oral 2 mg, 24 hours, postmenopausal women", "result": "higher after estradiol sulfamate than after EV"},
      {"measurement": "estrone sulfate levels 48 hours after administration", "setting": "[5]; one-time oral 2 mg, 48 hours, postmenopausal women", "result": "higher after estradiol sulfamate than after EV"},
      {"measurement": "estradiol blood levels one week after treatment", "setting": "[5]; one-time oral 2 mg, one week, postmenopausal women", "result": "clearly exceed the starting values"},
      {"measurement": "increase of estrone sulfate levels in plasma", "setting": "[5]; one-time oral 2 mg, postmenopausal women (FIG. 1)", "result": "increase"},
      {"measurement": "increase of estrone levels in plasma", "setting": "[5]; one-time oral 2 mg, postmenopausal women (FIG. 2)", "result": "persists for a long time"},
      {"measurement": "level of estrogen sulfate in comparison to EV", "setting": "[5]; oral use (FIG. 4)", "result": "very low in comparison to EV"},
      {"measurement": "release (surface under the curve) of estrone", "setting": "[5]; oral use, compared with EV (FIG. 4)", "result": "altogether higher release"},
      {"measurement": "average estrone sulfate levels", "setting": "[5]; three postmenopausal women, one-time 2 mg, over 600 hours (FIG. 5)", "result": "clear increase compared to the starting values"},
      {"measurement": "estrone sulfate increase compared with transdermal therapy", "setting": "[5]; women, oral", "result": "behave comparably"},
      {"measurement": "induced estrone sulfate levels relative to estradiol valerate", "setting": "[5]; women, oral, at comparable estrone and estradiol levels in the blood", "result": "about 10 times lower"},
      {"measurement": "growth effect on the endometrium relative to the starting value", "setting": "[6]", "result": "considerable growth effect on the endometrium"},
      {"measurement": "blood levels of estradiol and estrone in comparison to estradiol in an equimolar dose", "setting": "[7]", "result": "higher and prolonged blood levels of estradiol and estrone"},
      {"measurement": "end of release processes (estradiol, estrone)", "setting": "[7]", "result": "≤ 24", "unit": "h"},
      {"measurement": "persistence of estrone sulfate increase in plasma after the last administration", "setting": "[8]; daily 0.1 mg, after last of 14 administrations", "result": "had not yet disappeared even after six days"},
      {"measurement": "estrone levels in the plasma", "setting": "[8]; in vivo", "result": "Relevant elevated estrone levels"},
      {"measurement": "estrone sulfate level at the end of the treatment", "setting": "[8]; in vivo", "result": "clear increases"},
      {"measurement": "estrone sulfate level in the first 24 hours after beginning of treatment", "setting": "[8]; in vivo", "result": "no clear increases"},
      {"measurement": "oral estrogenic action", "setting": "[9]; oral treatment", "result": "strong oral estrogenic action"},
      {"measurement": "extension of the estrogen actions", "setting": "[9]; very high dosages", "result": "did not result in an extension of the estrogen actions"}
    ]}
  ]
}
